Results as given in the supplement of paper PMC11061612.

Tests used:
[1] = compound: NC1(c2ccc(-c3nc4ccn5c(=O)[nH]nc5c4cc3-c3ccccc3)cc2)CCC1 [MK-2206]; details: max 10 µM
In short: (§1)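 Cancer cell lines were plated in 1536-well plates in 7.5 μl of DMEM/F12 or RPMI with 10% FBS and kept 24 hours at 37°C and 5% CO2 before 72 hours of dosing, with final DMSO typically 0.2%. CellTiter-Glo 2.0 luminescence measured viability, scaled between blank-well and DMSO-well means. Dose responses were fitted to a two-parameter logistic curve with a non-linear mixed effects model. This fit gives the single-agent IC50.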

[2] = compound: CCN(CCO)CCCOc1ccc2c(Nc3cc(CC(=O)Nc4cccc(F)c4)[nH]n3)ncnc2c1 [AZD2811]; details: max 1 µM
In short: as §1

[3] = compound: Cc1c2c(nn1C)CSCc1cc(n(C)n1)CSc1cc(c3ccccc3c1)OCCCc1c(C(=O)O)n(C)c3c-2c(Cl)ccc13 [AZD5991]; details: max 1 µM
In short: as §1

[4] = compound: COc1cc2ncnc(Nc3ccc(F)c(Cl)c3)c2cc1OCCCN1CCOCC1 [Gefitinib]; details: max 10 µM
In short: as §1

[5] = compound: COc1nnc2ccc(N3CCC(c4ccc(OCCN5CCN(C)C(=O)[C@H]5C)cc4)CC3)nn12 [AZD5153]; details: max 1 µM
In short: as §1

[6] = compound: CCc1c2c(nc3ccc(O)cc13)-c1cc3c(c(=O)n1C2)COC(=O)[C@]3(O)CC [SN-38]; details: max 0.3 µM
In short: as §1

[7] = compound: CS(=O)(=O)CCNCc1ccc(-c2ccc3ncnc(Nc4ccc(OCc5cccc(F)c5)c(Cl)c4)c3c2)o1 [Lapatinib]; details: max 10 µM
In short: as §1

[8] = compound: COc1cccc(OCCCN)c1-c1cc(Nc2cnc(C#N)cn2)n[nH]1 [Prexasertib]; details: max 1 µM
In short: as §1

[9] = compound: COc1cccc2c1C(=O)c1c(O)c3c(c(O)c1C2=O)C[C@@](O)(C(=O)CO)C[C@@H]3O[C@H]1C[C@H](N)[C@H](O)[C@H](C)O1 [Doxorubicin]; details: max 1 µM
In short: as §1

[10] = compound: Cc1cc2ncnn2cc1Nc1ncc2c(n1)n(C1CCOCC1)c(=O)n2C [AZD7648]; details: max 10 µM
In short: as §1

[11] = compound: CC1(C)CCC(CN2CCN(c3ccc(C(=O)NS(=O)(=O)c4ccc(NCC5CCOCC5)c([N+](=O)[O-])c4)c(Oc4cnc5[nH]ccc5c4)c3)CC2)=C(c2ccc(Cl)cc2)C1 [Venetoclax]; details: max 1 µM
In short: as §1

[12] = compound: CC1=C(C(=CC=C1)Cl)NC(=O)C2=CN=C(S2)NC3=CC(=NC(=N3)C)N4CCN(CC4)CCO [Dasatinib]; details: max 2 µM
In short: as §1

[13] = compound: C[C@@H](Oc1cc(-c2cnn(C3CCNCC3)c2)cnc1N)c1c(Cl)ccc(F)c1Cl [Crizotinib]; details: max 10 µM
In short: as §1

[14] = compound: C1CN(CCC1(C(=O)N[C@@H](CCO)C2=CC=C(C=C2)Cl)N)C3=NC=NC4=C3C=CN4 [Capivasertib]; details: max 10 µM
In short: as §1

[15] = compound: C[C@@H]1COCCN1C2=NC(=NC(=C2)C3(CC3)[S@](=N)(=O)C)C4=C5C=CNC5=NC=C4 [AZD6738]; details: max 10 µM
In short: as §1

[16] = compound: Cc1nc(-c2cn3c(n2)-c2ccc(-c4cnn(C(C)(C)C(N)=O)c4)cc2OCC3)n(C(C)C)n1 [Taselisib]; details: max 10 µM
In short: as §1

[17] = compound: CN(CC[C@H](CSC1=CC=CC=C1)NC2=C(C=C(C=C2)S(=O)(=O)NC(=O)C3=CC=C(C=C3)N4CCC(CC4)[C@H](C5=CC=CC=C5C6=CC=C(C=C6)Cl)O)S(=O)(=O)C(F)(F)F)CCO [AZD4320]; details: max 1 µM
In short: as §1

[18] = compound: CN(C)CCCOc1ccc(-c2ccc3ncc4c(c3c2)n(C2CCOCC2)c(=O)n4C)cn1 [AZD0156]; details: max 3 µM
In short: as §1

[19] = compound: C[C@@H](c1ccc2nccn2c1)n1nnc2ncc(-c3cnn(C)c3)nc21 [Savolitinib]; details: max 1 µM
In short: as §1

[20] = compound: Cn1cnc2c(F)c(Nc3ccc(Br)cc3Cl)c(C(=O)NOCCO)cc21 [Selumetinib]; details: max 10 µM
In short: as §1

[21] = compound: COc1cc(Nc2ncc3c(n2)-c2ccc(Cl)cc2C(c2c(F)cccc2OC)=NC3)ccc1C(=O)O [Alisertib]; details: max 10 µM
In short: as §1

[22] = compound: CC1=CN2[C@@H](C1)C=NC3=CC(=C(C=C3C2=O)OC)OCCCCCOC4=C(C=C5C(=C4)N=C[C@@H]6CC(=CN6C5=O)C)OC [SG3199]; details: max 0.001 µM
In short: as §1

[23] = compound: CC(C)n1c(=O)n(C)c2cnc3cc(F)c(-c4ccc(OCCCN5CCCCC5)nc4)cc3c21 [AZD1390]; details: max 0.3 µM
In short: as §1

[24] = compound: CC(=O)Nc1cccc(-n2c(=O)n(C3CC3)c(=O)c3c(Nc4ccc(I)cc4F)n(C)c(=O)c(C)c32)c1 [Trametinib]; details: max 1 µM
In short: as §1

[25] = compound: CC(=O)c1c(C)c2cnc(Nc3ccc(N4CCNCC4)cn3)nc2n(C2CCCC2)c1=O [Palbociclib]; details: max 10 µM
In short: as §1

[26] = compound: C[C@@H](Nc1cc(F)cc(F)c1)c1cc(C(=O)N(C)C)cc2c(=O)cc(N3CCOCC3)oc12 [AZD8186]; details: max 3 µM
In short: as §1

[27] = compound: C=CCn1c(=O)c2cnc(Nc3ccc(N4CCN(C)CC4)cc3)nc2n1-c1cccc(C(C)(C)O)n1 [AZD1775]; details: max 3 µM
In short: as §1

[28] = compound: O=C(c1cc(Cc2n[nH]c(=O)c3ccccc23)ccc1F)N1CCN(C(=O)C2CC2)CC1 [Olaparib]; details: max 10 µM
In short: as §1

| Cell Line | IC50, cell viability 72 h [1] [nM] | IC50, cell viability 72 h [2] [nM] | IC50, cell viability 72 h [3] [nM] | IC50, cell viability 72 h [4] [nM] | IC50, cell viability 72 h [5] [nM] | IC50, cell viability 72 h [6] [nM] | IC50, cell viability 72 h [7] [nM] | IC50, cell viability 72 h [8] [nM] | IC50, cell viability 72 h [9] [nM] | IC50, cell viability 72 h [10] [nM] | IC50, cell viability 72 h [11] [nM] | IC50, cell viability 72 h [12] [nM] | IC50, cell viability 72 h [13] [nM] | IC50, cell viability 72 h [14] [nM] | IC50, cell viability 72 h [15] [nM] | IC50, cell viability 72 h [16] [nM] | IC50, cell viability 72 h [17] [nM] | IC50, cell viability 72 h [18] [nM] | IC50, cell viability 72 h [19] [nM] | IC50, cell viability 72 h [20] [nM] | IC50, cell viability 72 h [21] [nM] | IC50, cell viability 72 h [22] [nM] | IC50, cell viability 72 h [23] [nM] | IC50, cell viability 72 h [24] [nM] | IC50, cell viability 72 h [25] [nM] | IC50, cell viability 72 h [26] [nM] | IC50, cell viability 72 h [27] [nM] | IC50, cell viability 72 h [28] [nM] |
| --- | --- | --- | --- | --- | --- | --- | --- | --- | --- | --- | --- | --- | --- | --- | --- | --- | --- | --- | --- | --- | --- | --- | --- | --- | --- | --- | --- | --- |
| HCC1428 (Breast Carcinoma) | > 10000 | > 1000 | 67.7 | > 10000 | 483 | > 300 | > 10000 | > 1000 | > 1000 | > 10000 | > 1000 | > 2000 | > 10000 | > 10000 | > 10000 | > 10000 | > 1000 | > 3000 | > 1000 | > 10000 | > 10000 | > 1 | > 300 | > 1000 | > 10000 | > 3000 | > 3000 | > 10000 |
| JIMT-1 (Breast Carcinoma) | – | > 1000 | > 1000 | > 10000 | > 1000 | > 300 | > 10000 | 85.1 | > 1000 | > 10000 | > 1000 | 1080 | > 10000 | > 10000 | 5640 | 4290 | > 1000 | > 3000 | > 1000 | > 10000 | > 10000 | > 1 | > 300 | > 1000 | > 10000 | > 3000 | 1080 | > 10000 |
| JVM-2 (B-Cell Non-Hodgkin's Lymphoma) | – | 238 | > 1000 | > 10000 | 53.1 | 3.86 | 9870 | 10.8 | 48.1 | > 10000 | > 1000 | 44.6 | 5650 | 1280 | 3230 | 307 | > 1000 | > 3000 | > 1000 | > 10000 | 203 | > 1 | > 300 | > 1000 | 1540 | 976 | 98.3 | > 10000 |
| Jurkat (T-Lymphoblastic Leukemia) | – | > 1000 | 292 | > 10000 | 210 | 7.97 | > 10000 | 25.8 | 415 | > 10000 | > 1000 | > 2000 | > 10000 | 2610 | 3550 | 5810 | 482 | > 3000 | > 1000 | > 10000 | 8510 | > 1 | > 300 | > 1000 | 7660 | > 3000 | 1740 | > 10000 |
